Experimental data: patent publication US11807644B2 (PMV Pharmaceuticals, Inc., priority 2020, dated 2023)

Target: T1, recombinant His-tag Y220C p53 DBD protein (Homo sapiens, UniProt P04637, Y220C)
T1 construct: recombinant His-tag Y220C p53 DBD protein (amino acids #˜94-312)
Assay: In vitro DNA binding activity assay (TR-FRET): binding of His-tag Y220C p53 DBD to biotin-labeled consensus DNA
Type: biochemical
Details: SC150 = concentration to increase DNA binding by […], His-tag Y220C p53 DBD, biotin-labeled consensus DNA

Y220C SC150 (μM) | Structure (SMILES)
* (* = 0 μM ≤ SC150 < 0.1 μM) | C[C@H]1CN(C)CC[C@H]1Nc1cccc2c1cc(-c1noc(CNC(=O)c3ccc(C(C)(C)O)s3)n1)n2CC(F)(F)F [Compound 509B, N-{[3-(4-{[(3S,4R)-1,3-dimethylpiperidin-4-yl]amino}-1-(2,2,2-trifluoroethyl)-1H-indol-2-yl)-1,2,4-oxadiazol-5-yl]methyl}-5-(2-hydroxypropan-2-yl)thiophene-2-carboxamide]
* (* = 0 μM ≤ SC150 < 0.1 μM) | C[C@@H]1CN(C)CC[C@@H]1Nc1cccc2c1cc(-c1noc(CNC(=O)c3cnn(C(C)(C)C)c3)n1)n2CC(F)(F)F [Compound 511B, 1-tert-butyl-N-{[3-(4-{[(3R,4S)-1,3-dimethylpiperidin-4-yl]amino}-1-(2,2,2-trifluoroethyl)-1H-indol-2-yl)-1,2,4-oxadiazol-5-yl]methyl}-1H-pyrazole-4-carboxamide]
* (* = 0 μM ≤ SC150 < 0.1 μM) | C[C@@H]1CN(C)CC[C@@H]1Nc1cccc2c1cc(-c1noc(CNC(=O)c3ccn(C(C)(C)C)c3)n1)n2CC(F)(F)F [Compound 513B, 1-tert-butyl-N-{[3-(4-{[(3R,4S)-1,3-dimethylpiperidin-4-yl]amino}-1-(2,2,2-trifluoroethyl)-1H-indol-2-yl)-1,2,4-oxadiazol-5-yl]methyl}-1H-pyrrole-3-carboxamide]
* (* = 0 μM ≤ SC150 < 0.1 μM) | C[C@H]1CN(C)CC[C@H]1Nc1cccc2c1cc(-c1noc(CNC(=O)c3ccn(C(C)(C)C)c3)n1)n2CC(F)(F)F [Compound 514B, 1-tert-butyl-N-{[3-(4-{[(3S,4R)-1,3-dimethylpiperidin-4-yl]amino}-1-(2,2,2-trifluoroethyl)-1H-indol-2-yl)-1,2,4-oxadiazol-5-yl]methyl}-1H-pyrrole-3-carboxamide]
* (* = 0 μM ≤ SC150 < 0.1 μM) | CCc1cc(C(=O)NCc2nc(-c3cc4c(N[C@@H]5CCN(C)C[C@@H]5F)cccc4n3CC(F)(F)F)no2)on1 [Compound 521B, 3-ethyl-N-{[3-(4-{[(3S,4R)-3-fluoro-1-methylpiperidin-4-yl]amino}-1-(2,2,2-trifluoroethyl)-1H-indol-2-yl)-1,2,4-oxadiazol-5-yl]methyl}-1,2-oxazole-5-carboxamide]
* (* = 0 μM ≤ SC150 < 0.1 μM) | CN1CC[C@@H](Nc2cccc3c2cc(-c2noc(CNC(=O)c4ccc(C(C)(C)C)[nH]4)n2)n3CC(F)(F)F)[C@@H](F)C1 [Compound 524B, 5-tert-butyl-N-{[3-(4-{[(3S,4R)-3-fluoro-1-methylpiperidin-4-yl]amino}-1-(2,2,2-trifluoroethyl)-1H-indol-2-yl)-1,2,4-oxadiazol-5-yl]methyl}-1H-pyrrole-2-carboxamide]
* (* = 0 μM ≤ SC150 < 0.1 μM) | CC(C)c1cc(C(=O)NCc2nc(-c3cc4c(N[C@@H]5CCN(C)C[C@@H]5F)cccc4n3CC(F)(F)F)no2)co1 [Compound 526B, N-{[3-(4-{[(3S,4R)-3-fluoro-1-methylpiperidin-4-yl]amino}-1-(2,2,2-trifluoroethyl)-1H-indol-2-yl)-1,2,4-oxadiazol-5-yl]methyl}-5-(propan-2-yl)furan-3-carboxamide]
* (* = 0 μM ≤ SC150 < 0.1 μM) | CN1CC[C@@H](Nc2cccc3c2cc(-c2noc(CNC(=O)c4csc(N(C)C(C)(C)C)n4)n2)n3CC(F)(F)F)[C@@H](F)C1 [Compound 528B, 2-[tert-butyl(methyl)amino]-N-{[3-(4-{[(3S,4R)-3-fluoro-1-methylpiperidin-4-yl]amino}-1-(2,2,2-trifluoroethyl)-1H-indol-2-yl)-1,2,4-oxadiazol-5-yl]methyl}-1,3-thiazole-4-carboxamide]

Second part, the compound before the results:

Structure (SMILES) | Y220C SC150 (μM)
C[C@H]1CN(C)CC[C@H]1Nc1cccc2c1cc(-c1noc(CNC(=O)c3cnn(C(C)(C)C)c3)n1)n2CC(F)(F)F [Compound 510B, 1-tert-butyl-N-{[3-(4-{[(3S,4R)-1,3-dimethylpiperidin-4-yl]amino}-1-(2,2,2-trifluoroethyl)-1H-indol-2-yl)-1,2,4-oxadiazol-5-yl]methyl}-1H-pyrazole-4-carboxamide] | * (* = 0 μM ≤ SC150 < 0.1 μM)
CC(C)(C)n1ccc(C(=O)NCc2nc(-c3cc4c(N[C@@H]5CCOC[C@H]5F)cccc4n3CC(F)(F)F)no2)c1 [Compound 512B, 1-tert-butyl-N-{[3-(4-{[(3S,4R)-3-fluorooxan-4-yl]amino}-1-(2,2,2-trifluoroethyl)-1H-indol-2-yl)-1,2,4-oxadiazol-5-yl]methyl}-1H-pyrrole-3-carboxamide] | * (* = 0 μM ≤ SC150 < 0.1 μM)
COC[C@@H]1CCCN1c1nc(C(=O)NCc2nc(-c3cc4c(N[C@@H]5CCN(C)C[C@@H]5F)cccc4n3CC(F)(F)F)no2)cs1 [Compound 519B, N-{[3-(4-{[(3S,4R)-3-fluoro-1-methylpiperidin-4-yl]amino}-1-(2,2,2-trifluoroethyl)-1H-indol-2-yl)-1,2,4-oxadiazol-5-yl]methyl}-2-[(2S)-2-(methoxymethyl)pyrrolidin-1-yl]-1,3-thiazole-4-carboxamide] | * (* = 0 μM ≤ SC150 < 0.1 μM)
COC[C@H]1CCCN1c1nc(C(=O)NCc2nc(-c3cc4c(N[C@@H]5CCN(C)C[C@@H]5F)cccc4n3CC(F)(F)F)no2)cs1 [Compound 520B, N-{[3-(4-{[(3S,4R)-3-fluoro-1-methylpiperidin-4-yl]amino}-1-(2,2,2-trifluoroethyl)-1H-indol-2-yl)-1,2,4-oxadiazol-5-yl]methyl}-2-[(2R)-2-(methoxymethyl)pyrrolidin-1-yl]-1,3-thiazole-4-carboxamide] | * (* = 0 μM ≤ SC150 < 0.1 μM)
CO[C@@H]1CCN(c2nc(C(=O)NCc3nc(-c4cc5c(N[C@@H]6CCN(C)C[C@@H]6F)cccc5n4CC(F)(F)F)no3)cs2)C1 [Compound 522B, N-{[3-(4-{[(3S,4R)-3-fluoro-1-methylpiperidin-4-yl]amino}-1-(2,2,2-trifluoroethyl)-1H-indol-2-yl)-1,2,4-oxadiazol-5-yl]methyl}-2-[(3R)-3-methoxypyrrolidin-1-yl]-1,3-thiazole-4-carboxamide] | * (* = 0 μM ≤ SC150 < 0.1 μM)
CO[C@H]1CCN(c2nc(C(=O)NCc3nc(-c4cc5c(N[C@@H]6CCN(C)C[C@@H]6F)cccc5n4CC(F)(F)F)no3)cs2)C1 [Compound 523B, N-{[3-(4-{[(3S,4R)-3-fluoro-1-methylpiperidin-4-yl]amino}-1-(2,2,2-trifluoroethyl)-1H-indol-2-yl)-1,2,4-oxadiazol-5-yl]methyl}-2-[(3S)-3-methoxypyrrolidin-1-yl]-1,3-thiazole-4-carboxamide] | * (* = 0 μM ≤ SC150 < 0.1 μM)
CN1CC[C@@H](Nc2cccc3c2cc(-c2noc(CNC(=O)c4csc(N5CC6CC(C5)O6)n4)n2)n3CC(F)(F)F)[C@@H](F)C1 [Compound 525B] | ** (** = 0.1 μM ≤ SC150 < 0.5 μM)
CN1CC[C@@H](Nc2cccc3c2cc(-c2noc(CNC(=O)c4csc(N5CC6(COC6)C5)n4)n2)n3CC(F)(F)F)[C@@H](F)C1 [Compound 527B, N-{[3-(4-{[(3S,4R)-3-fluoro-1-methylpiperidin-4-yl]amino}-1-(2,2,2-trifluoroethyl)-1H-indol-2-yl)-1,2,4-oxadiazol-5-yl]methyl}-2-{2-oxa-6-azaspiro[3.3]heptan-6-yl}-1,3-thiazole-4-carboxamide] | * (* = 0 μM ≤ SC150 < 0.1 μM)
